Measurements published in patent EP4640240A1, “PEPTIDE-BASED RADIOPHARMACEUTICALS FOR NON-INVASIVE IMAGING OF THE FUNCTIONAL LIVER RESERVE” (Medizinische Universität Innsbruck, priority 2024, dated 2025).
Where two headings read alike, the source gives them in different places.

Experiments:
[1] = Stability in human blood serum (radio-HPLC); format: in vitro ADME; details: 37 °C; for remaining at 1 h: 60 min; for Serum stability (% of intact ligand): n=2
Method: Ligand stability in human blood serum (n = 2) and PBS (pH = 6.5) (n = 1) was determined for different time points (2 min, 30 min, 60 min, 120 min). Therefore, approx. 5 MBq of radioligand was added to 1 mL of fresh human serum at 37 °C or PBS at rt. At each given time point 100 µL of the mixture were transferred to a 1.5 mL Eppendorf tube containing 100 µL of acetonitrile. The vial was vortexed and centrifuged for 2 min at 14,000 1/min before 100 µL of the supernatant were diluted with 200 µL of water and injected into analytical radio-HPLC. The PBS solution was directly injected into the radio-HPLC. Ligand stability was determined by integrating the areas of the signals in the radio chromatogram in relation to the signal of the intact ligand.

[2] = Protein binding in human serum (MicroSpin G-50 columns); format: in vitro ADME; details: fresh human serum, 37 °C, n=3
Method: Protein binding was determined for different time points (2 min, 30 min, 60 min, 120 min) in triplicates using Sephadex MicroSpin G-50 columns (GE-Healthcare, Chicago, Illinois, USA). The columns were spun initially at 20,000 rcf for 1 min to remove the storage buffer. Then approx. 5 MBq of radioligand was added to 1 mL of fresh human serum and incubated at 37 °C. At each given timepoint 25 µL of the mixture was loaded on to the column, which was then spun at 20,000 rcf for 1 min. The activity content on the column (free radioligand) and in the filtrate (protein bound fraction) was quantified in a γ-counter.

[3] = Partition coefficient logD (n-octanol/PBS); format: physicochemical; details: n=6
Method: For determination of logarithmic partition coefficients (logD) n-Octanol (500 µL) and PBS (500 µL) were pipetted into eight 1.5 mL Protein Low-Bind Eppendorf tubes followed by addition of 300 kBq of labelled compound. The vials were vortexed for 5 min at 1,500 1/min and then centrifuged for 5 min at 20,000 rcf (Eppendorf Centrifuge 5424). Aliquots of 100 µL were taken out of each phase and the amount of activity was quantified in a γ-counter (Perkin Elmer 2480 Wizard2 3"; Waltham, Massachusetts, USA).

[4] = Biodistribution studies in BALB/c mice; format: in vivo; details: for tissue uptake at 10 min / tissue uptake at 0.5 h / tissue uptake at 1 h: female, mouse, iv, total radioactivity, healthy BALB/c mice, 0.1 nmol i.v.; for tissue uptake at 10 min: 10 min p.i.; for tissue uptake at 0.5 h: 30 min p.i.; for tissue uptake at 1 h: 60 min p.i.
Method: For biodistribution studies 6-week-old female BALB/c mice (n=3) were injected with 0.1 nmol (100 µL, approx. 1 MBq) of labelled compound via the lateral tail vein and sacrificed after 10, 30, or 60 min by cervical dislocation. The mice were dissected, blood and organs (spleen, pancreas, stomach, intestine, liver, kidney, heart, lung, muscle and bone) were weighed and their activity measured in a γ-counter. For blocking experiments, mice were co-injected with 27.7 µmοl N-acetylgalactose.

[5] = n=2, read-out: Serum stability (% of intact ligand)
[6] = Blood, read-out: Biodistribution data, Blood
[7] = Femur, read-out: Biodistribution data, Femur
[8] = Heart, read-out: Biodistribution data, Heart
[9] = Intestine, read-out: Biodistribution data, Intestine
[10] = Kidneys, read-out: Biodistribution data, Kidneys
[11] = Liver, read-out: Biodistribution data, Liver
[12] = Lung, read-out: Biodistribution data, Lung
[13] = Muscle, read-out: Biodistribution data, Muscle
[14] = Pancreas, read-out: Biodistribution data, Pancreas
[15] = Spleen, read-out: Biodistribution data, Spleen
[16] = Stomach, read-out: Biodistribution data, Stomach

`NC(=O)CNC(=O)CNC(=O)[C@H](CCCCNC(=O)CCCCc1cn(C2O[C@H](CO)[C@H](O)[C@H](O)[C@H]2O)nn1)NC(=O)CNC(=O)CNC(=O)[C@H](CCCCNC(=O)CCCCc1cn(C2O[C@H](CO)[C@H](O)[C@H](O)[C@H]2O)nn1)NC(=O)CNC(=O)CNC(=O)[C@H](CCCCNC(=O)CCCCc1cn(C2O[C@H](CO)[C@H](O)[C@H](O)[C@H]2O)nn1)NC(=O)CCCNC(=O)CC[C@H](C(=O)O)N1CCN(CC(=O)O)CCN(CC(=O)O)CC1` (stereo partly shown) [[68Ga]Ga-TriLysan, metal not drawn] showed a remaining at 2 min [1, 5] of 99.9%, a remaining at 0.5 h ([1]; 30 min, n=2, read-out: Serum stability (% of intact ligand)) of 99.9% and a remaining at 1 h [1, 5] of 99.9%. The “Serum stability (% of intact ligand)” value ([1]; 120 min) was 99.9 ± 0%, the fraction unbound at 2 min, 5 MBq/mL ([2]; 2 min) was 0.82 and the fraction unbound at 30 min, 5 MBq/mL ([2]; 30 min) was 0.798. For the same compound, the fraction unbound at 60 min, 5 MBq/mL ([2]; 60 min) was 0.831, the fraction unbound ([2]; 120 min) was 0.857 ± 0.126 and the logD [3] was -3.52 ± 0.03. For the same compound, the “activity accumulation in the liver (in words)” value ([4]; BALB/c mice, comparison with ^99mTc-GSA) was “low accumulation”, the tissue uptake at 10 min [4, 6] was 3.64 ± 0.08 %ID/g and the tissue uptake at 0.5 h [4, 6] was 1.6 ± 0.17 %ID/g. For the same compound, the tissue uptake at 1 h [4, 6] was 0.27 ± 0.01 %ID/g, the tissue uptake at 10 min [4, 7] was 0.89 ± 0.32 %ID/g and the tissue uptake at 0.5 h [4, 7] was 0.39 ± 0.02 %ID/g. It also gave a tissue uptake at 1 h [4, 7] of 0.11 ± 0.01 %ID/g, a tissue uptake at 10 min [4, 8] of 1.41 ± 0.01 %ID/g and a tissue uptake at 0.5 h [4, 8] of 0.63 ± 0.04 %ID/g. For the same compound, the tissue uptake at 1 h [4, 8] was 0.15 ± 0.01 %ID/g, the tissue uptake at 10 min [4, 9] was 1.24 ± 0.26 %ID/g and the tissue uptake at 0.5 h [4, 9] was 1.13 ± 0.02 %ID/g. It also gave a tissue uptake at 1 h [4, 9] of 1.04 ± 0.26 %ID/g, a tissue uptake at 10 min [4, 10] of 7.56 ± 1.35 %ID/g and a tissue uptake at 0.5 h [4, 10] of 4.99 ± 0.02 %ID/g. For the same compound, the tissue uptake at 1 h [4, 10] was 1.99 ± 0.34 %ID/g, the tissue uptake at 10 min [4, 11] was 9.45 ± 1.58 %ID/g and the tissue uptake at 0.5 h [4, 11] was 9.44 ± 1.99 %ID/g. It also gave a tissue uptake at 1 h [4, 11] of 9.19 ± 0.27 %ID/g, a tissue uptake at 10 min [4, 12] of 2.56 ± 0.17 %ID/g and a tissue uptake at 0.5 h [4, 12] of 1.15 ± 0.11 %ID/g. It also gave a tissue uptake at 1 h [4, 12] of 0.47 ± 0.06 %ID/g, a tissue uptake at 10 min [4, 13] of 0.9 ± 0.05 %ID/g and a tissue uptake at 0.5 h [4, 13] of 0.4 ± 0.04 %ID/g. For the same compound, the tissue uptake at 1 h [4, 13] was 0.12 %ID/g, the tissue uptake at 10 min [4, 14] was 0.97 ± 0.04 %ID/g and the tissue uptake at 0.5 h [4, 14] was 0.44 %ID/g. The tissue uptake at 1 h [4, 14] was 0.17 ± 0.01 %ID/g, the tissue uptake at 10 min [4, 15] was 1 ± 0.01 %ID/g and the tissue uptake at 0.5 h [4, 15] was 0.42 ± 0.02 %ID/g. For the same compound, the tissue uptake at 1 h [4, 15] was 0.16 %ID/g, the tissue uptake at 10 min [4, 16] was 1.55 ± 0.24 %ID/g and the tissue uptake at 0.5 h [4, 16] was 0.88 ± 0.09 %ID/g. The tissue uptake at 1 h [4, 16] was 0.31 ± 0.05 %ID/g.

In the case of `NC(=O)CNC(=O)CNC(=O)[C@H](CCCCNC(=O)CCCCc1cn(C2O[C@H](CO)[C@H](O)[C@H](O)[C@H]2O)nn1)NC(=O)CNC(=O)CNC(=O)[C@H](CCCCNC(=O)CCCCc1cn(C2O[C@H](CO)[C@H](O)[C@H](O)[C@H]2O)nn1)NC(=O)CNC(=O)CNC(=O)[C@H](CCCCNC(=O)CCCCc1cn(C2O[C@H](CO)[C@H](O)[C@H](O)[C@H]2O)nn1)NC(=O)CNC(=O)CNC(=O)[C@H](CCCCNC(=O)CCCCc1cn(C2O[C@H](CO)[C@H](O)[C@H](O)[C@H]2O)nn1)NC(=O)CNC(=O)CNC(=O)[C@H](CCCCNC(=O)CCCCc1cn(C2O[C@H](CO)[C@H](O)[C@H](O)[C@H]2O)nn1)NC(=O)CNC(=O)CNC(=O)[C@H](CCCCNC(=O)CCCCc1cn(C2O[C@H](CO)[C@H](O)[C@H](O)[C@H]2O)nn1)NC(=O)CCCNC(=O)CC[C@H](C(=O)O)N1CCN(CC(=O)O)CCN(CC(=O)O)CC1` (stereo partly shown) [[68Ga]Ga-HexaLysan, metal not drawn], the remaining at 2 min [1, 5] is reported as 99.4 ± 0.2%, the “Serum stability (% of intact ligand)” value ([1]; 30 min) is reported as 99.7 ± 0.1% and the remaining at 1 h [1, 5] is reported as 99.9 ± 0.1%. For the same compound, the remaining at 2 h ([1]; 120 min, n=2, read-out: Serum stability (% of intact ligand)) was 99.9 ± 0.1%, the fraction unbound ([2]; 2 min) was 0.824 and the fraction unbound ([2]; 30 min) was 0.782. It also gave a fraction unbound ([2]; 60 min) of 0.82, a fraction unbound at 120 min, 5 MBq/mL ([2]; 120 min) of 0.748 and a logD [3] of -4.34 ± 0.13. For the same compound, the tissue uptake at 10 min [4, 6] was 2.1 ± 0.04 %ID/g, the tissue uptake at 0.5 h [4, 6] was 0.63 ± 0.07 %ID/g and the tissue uptake at 1 h [4, 6] was 1.05 ± 0.41 %ID/g. It also gave a tissue uptake at 10 min [4, 7] of 0.48 ± 0.06 %ID/g, a tissue uptake at 0.5 h [4, 7] of 0.33 ± 0.03 %ID/g and a tissue uptake at 1 h [4, 7] of 0.002 ± 0.001 %ID/g. For the same compound, the tissue uptake at 10 min [4, 8] was 0.94 ± 0.05 %ID/g, the tissue uptake at 0.5 h [4, 8] was 0.37 ± 0.09 %ID/g and the tissue uptake at 1 h [4, 8] was 0.25 ± 0.02 %ID/g. It also gave a tissue uptake at 10 min [4, 9] of 1.19 ± 0.25 %ID/g, a tissue uptake at 0.5 h [4, 9] of 3.97 ± 0.28 %ID/g and a tissue uptake at 1 h [4, 9] of 5.94 ± 1.67 %ID/g. The tissue uptake at 10 min [4, 10] was 4.83 ± 0.3 %ID/g, the tissue uptake at 0.5 h [4, 10] was 1.94 ± 0.22 %ID/g and the tissue uptake at 1 h [4, 10] was 1.34 ± 0.34 %ID/g. It also gave a tissue uptake at 10 min [4, 11] of 54.8 ± 3.02 %ID/g, a tissue uptake at 0.5 h [4, 11] of 55.5 ± 7.37 %ID/g and a tissue uptake at 1 h [4, 11] of 45.9 ± 11.8 %ID/g. The tissue uptake at 10 min [4, 12] was 1.61 ± 0.16 %ID/g, the tissue uptake at 0.5 h [4, 12] was 0.77 ± 0.11 %ID/g and the tissue uptake at 1 h [4, 12] was 0.62 ± 0.19 %ID/g. It also gave a tissue uptake at 10 min [4, 13] of 0.93 ± 0.12 %ID/g, a tissue uptake at 0.5 h [4, 13] of 0.57 ± 0.03 %ID/g and a tissue uptake at 1 h [4, 13] of 0.41 ± 0.04 %ID/g. It also gave a tissue uptake at 10 min [4, 14] of 0.91 ± 0.05 %ID/g, a tissue uptake at 0.5 h [4, 14] of 0.69 ± 0.12 %ID/g and a tissue uptake at 1 h [4, 14] of 0.48 ± 0.13 %ID/g. The tissue uptake at 10 min [4, 15] was 0.5 ± 0.07 %ID/g, the tissue uptake at 0.5 h [4, 15] was 0.21 ± 0.06 %ID/g and the tissue uptake at 1 h [4, 15] was 0.17 ± 0.02 %ID/g. It also gave a tissue uptake at 10 min [4, 16] of 1.29 ± 0.28 %ID/g, a tissue uptake at 0.5 h [4, 16] of 1.19 ± 0.28 %ID/g and a tissue uptake at 1 h [4, 16] of 0.4 ± 0.14 %ID/g.
